Measurements: US20240018123A1, “COMPOUND FOR INHIBITING OR DISINTEGRATING ANDROGEN RECEPTOR, AND PHARMACEUTICAL USE THEREOF” (KOREA RESEARCH INSTITUTE OF CHEMICAL TECHNOLOGY, priority 2020, published 2024)
Where two headings read alike, the source gives them in different places.

Columns and labels:
Androgen receptor (AR) = target: T1, Androgen receptor (AR) (Homo sapiens, UniProt P10275, T878A); assay: Assessment of AR proteolytic activity (Western blotting of LNCap cell lysates); format: cell-based; conditions: 24 hours of treatment, Western blotting quantified with Image J; for remaining activity at 1 µM: read-out: Degradation (1 μM treated in LNCaP, % AR remaining)
T1 construct: 5.5×10^5 LNCap cells were injected into each well of a 6-well plate; endogenous in cells; host or cells: LNCaP
T1 sequence (P10275 1-920 T878A): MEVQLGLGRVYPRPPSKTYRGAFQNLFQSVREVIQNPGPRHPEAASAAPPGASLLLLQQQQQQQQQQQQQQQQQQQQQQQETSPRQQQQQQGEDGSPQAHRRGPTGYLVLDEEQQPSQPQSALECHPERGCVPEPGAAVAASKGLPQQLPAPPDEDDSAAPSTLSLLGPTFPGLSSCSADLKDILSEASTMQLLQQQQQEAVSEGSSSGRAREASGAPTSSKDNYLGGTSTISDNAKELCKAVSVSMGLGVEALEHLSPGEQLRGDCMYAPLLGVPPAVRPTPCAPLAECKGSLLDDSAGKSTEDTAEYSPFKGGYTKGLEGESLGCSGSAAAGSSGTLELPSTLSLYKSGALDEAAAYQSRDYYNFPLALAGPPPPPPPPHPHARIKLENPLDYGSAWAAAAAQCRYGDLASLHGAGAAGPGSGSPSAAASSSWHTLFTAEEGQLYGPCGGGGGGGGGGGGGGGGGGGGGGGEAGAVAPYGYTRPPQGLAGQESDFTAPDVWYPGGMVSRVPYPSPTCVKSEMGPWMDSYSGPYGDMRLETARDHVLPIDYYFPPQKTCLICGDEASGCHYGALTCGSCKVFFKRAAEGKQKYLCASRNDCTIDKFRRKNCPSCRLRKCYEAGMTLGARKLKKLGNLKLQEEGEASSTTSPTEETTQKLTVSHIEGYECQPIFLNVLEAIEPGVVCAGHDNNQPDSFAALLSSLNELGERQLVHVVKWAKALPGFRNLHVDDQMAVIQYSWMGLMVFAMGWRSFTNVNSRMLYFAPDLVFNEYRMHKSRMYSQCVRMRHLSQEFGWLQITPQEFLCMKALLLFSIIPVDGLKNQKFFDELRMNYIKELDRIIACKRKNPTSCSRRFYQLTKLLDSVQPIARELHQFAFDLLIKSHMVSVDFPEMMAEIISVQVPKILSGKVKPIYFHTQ
How it was run: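 AR degradation read by Western blot densitometry on RIPA lysates (pH 7.5, protease inhibitor cocktail). Lysates came from LNCap cells, 5.5×10^5 per well, exposed to compound for 24 hours.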

VCaP cells [1] = tested on: VCaP cells
VCaP cells [2] = assay: Cytotoxicity assessment (Cell-titer-glo cell viability), VCaP
[3] = read-out: VCaP (CC50), VCaP cells, 6 days of treatment, Cell-titer-glo, vs DMSO
[4] = Homo sapiens, VCaP, 144 h, read-out: VCaP (CC50, μM)

`CC1(C)[C@H](NC(=O)c2ccc(N3CC4CC3CN4CC3CCN(C(=O)C4CN(c5ccc6nnn(C7CCC(=O)NC7=O)c(=O)c6c5)C4)CC3)cc2)C(C)(C)[C@H]1Oc1ccc(C#N)c(Cl)c1` (some centres unmarked) [Example 73, N-((1r,3r)-3-(3-chloro-4-cyanophenoxy)-2,2,4,4-tetramethylcyclobutyl)-4-(5-((1-(1-(3-(2,6-dioxopiperidin-3-yl)-4-oxo-3,4-dihydrobenzo[d][1,2,3]triazin-6-yl)azetidine-3-carbonyl)piperidin-4-yl)methyl)-2,5-diazabicyclo[2.2.1]heptan-2-yl)benzamide] was tested, and the “Degradation (1 μM treated in LNCaP, % AR remaining)” value (Androgen receptor (AR)) was 40% and the CC50 (VCaP cells [1]) was 0.0795 µM.

`CC1(C)C(NC(=O)c2ccc(N3CCN(CC4CCN(CCNC(=O)C5CCN(c6ccc7nnn(C8CCC(=O)NC8=O)c(=O)c7c6)CC5)CC4)CC3)cc2)C(C)(C)C1Oc1ccc(C#N)c(Cl)c1` (centres unmarked) [Example 68, N-(2-(4-((4-(4-(((1r,3r)-3-(3-chloro-4-cyanophenoxy)-2,2,4,4-tetramethylcyclobutyl)carbamoyl)phenyl)piperazin-1-yl)methyl)piperidin-1-yl)ethyl)-1-(3-(2,6-dioxopiperidin-3-yl)-4-oxo-3,4-dihydrobenzo[d][1,2,3]triazin-6-yl)piperidine-4-carboxamide] was tested, and the CC50 (VCaP cells [2]; [3]) was 0.162 µM and the “Degradation (1 μM treated in LNCaP, % AR remaining)” value (Androgen receptor (AR)) was 26%.

With `CC1(C)[C@H](NC(=O)c2ccc(N3CCC(CN4CCN(C(=O)C5CCN(c6ccc7nnn(C8CCC(=O)NC8=O)c(=O)c7c6)CC5)CC4)CC3)cc2)C(C)(C)[C@H]1Oc1ccc(C#N)c(Cl)c1` (some centres unmarked) [Example 49, N-((1r,3r)-3-(3-chloro-4-cyanophenoxy)-2,2,4,4-tetramethylcyclobutyl)-4-(4-((4-(1-(3-(2,6-dioxopiperidin-3-yl)-4-oxo-3,4-dihydrobenzo[d][1,2,3]triazin-6-yl)piperidine-4-carbonyl)piperazin-1-yl)methyl)piperidin-1-yl)benzamide] the CC50 (VCaP cells [2]; [4]) was 0.0678 µM and the remaining activity at 1 µM (Androgen receptor (AR)) was 8.6%.

With `CC1(C)[C@H](NC(=O)c2ccc(C3CCN(CCOC4CCN(C(=O)C5CCN(c6ccc7nnn(C8CCC(=O)NC8=O)c(=O)c7c6)CC5)CC4)CC3)cc2)C(C)(C)[C@H]1Oc1ccc(C#N)c(Cl)c1` (some centres unmarked) [Example 74, N-((1r,3r)-3-(3-chloro-4-cyanophenoxy)-2,2,4,4-tetramethylcyclobutyl)-4-(1-(2-((1-(1-(3-(2,6-dioxopiperidin-3-yl)-4-oxo-3,4-dihydrobenzo[d][1,2,3]triazin-6-yl)piperidine-4-carbonyl)piperidin-4-yl)oxy)ethyl)piperidin-4-yl)benzamide] the CC50 (VCaP cells [2]; [3]) was 0.0732 µM and the “Degradation (1 μM treated in LNCaP, % AR remaining)” value (Androgen receptor (AR)) was 20%.

With `CC1(C)C(NC(=O)c2ccc(N3CCN(CC4(O)CCN(C(=O)C5CCN(c6ccc7nnn(C8CCC(=O)NC8=O)c(=O)c7c6)CC5)CC4)CC3)cc2)C(C)(C)C1Oc1ccc(C#N)c(Cl)c1` (centres unmarked) [Example 55, N-((1r,3r)-3-(3-chloro-4-cyanophenoxy)-2,2,4,4-tetramethylcyclobutyl)-4-(4-((1-(1-(3-(2,6-dioxopiperidin-3-yl)-4-oxo-3,4-dihydrobenzo[d][1,2,3]triazin-6-yl)piperidine-4-carbonyl)-4-hydroxypiperidin-4-yl)methyl)piperazin-1-yl)benzamide] the CC50 (VCaP cells [2]; [3]) was 0.0365 µM and the “Degradation (1 μM treated in LNCaP, % AR remaining)” value (Androgen receptor (AR)) was 8.6%.

With `CC1(C)C(NC(=O)c2ccc(N3CCN(CC4CCN(C(=O)C5CN(c6ccc7nnn(C8CCC(=O)NC8=O)c(=O)c7c6)C5)CC4)CC3)nc2)C(C)(C)C1Oc1ccc(C#N)c(Cl)c1` (centres unmarked) [Example 80, N-((1r,3r)-3-(3-chloro-4-cyanophenoxy)-2,2,4,4-tetramethylcyclobutyl)-6-(4-((1-(1-(3-(2,6-dioxopiperidin-3-yl)-4-oxo-3,4-dihydrobenzo[d][1,2,3]triazin-6-yl)azetidine-3-carbonyl)piperidin-4-yl)methyl)piperazin-1-yl)nicotinamide] the CC50 (VCaP cells [2]; [3]) was 0.01 µM and the “Degradation (1 μM treated in LNCaP, % AR remaining)” value (Androgen receptor (AR)) was 56%.

With `CC1(C)C(NC(=O)c2ccc(N3CC4CC3CN4C3CC4(CCN(C(=O)C5CCN(c6ccc7nnn(C8CCC(=O)NC8=O)c(=O)c7c6)CC5)CC4)C3)cc2)C(C)(C)C1Oc1ccc(C#N)c(Cl)c1` (centres unmarked) [Example 71, N-((1r,3r)-3-(3-chloro-4-cyanophenoxy)-2,2,4,4-tetramethylcyclobutyl)-4-(5-(7-(1-(3-(2,6-dioxopiperidin-3-yl)-4-oxo-3,4-dihydrobenzo[d][1,2,3]triazin-6-yl)piperidine-4-carbonyl)-7-azaspiro[3.5]nonan-2-yl)-2,5-diazabicyclo[2.2.1]heptan-2-yl)benzamide] the CC50 (VCaP cells [2]; [3]) was 0.0705 µM and the “Degradation (1 μM treated in LNCaP, % AR remaining)” value (Androgen receptor (AR)) was 37%.

With `CC1(C)C(NC(=O)c2ccc(N3CCN(CC4CCN(C(=O)C5CCN(c6ccc7nnn(C8CCC(=O)NC8=O)c(=O)c7c6)CC5)CC4)CC3)nc2)C(C)(C)C1Oc1ccc(C#N)c(Cl)c1` (centres unmarked) [Example 81, N-((1r,3r)-3-(3-chloro-4-cyanophenoxy)-2,2,4,4-tetramethylcyclobutyl)-6-(4-((1-(1-(3-(2,6-dioxopiperidin-3-yl)-4-oxo-3,4-dihydrobenzo[d][1,2,3]triazin-6-yl)piperidine-4-carbonyl)piperidin-4-yl)methyl)piperazin-1-yl)nicotinamide] the CC50 (VCaP cells [2]; [3]) was 0.0238 µM and the “Degradation (1 μM treated in LNCaP, % AR remaining)” value (Androgen receptor (AR)) was 18%.

With `CC1(C)[C@H](NC(=O)c2ccc(C3CCN(CC4CCN(c5ccc6nnn(C7CCC(=O)NC7=O)c(=O)c6c5)CC4)CC3)cc2)C(C)(C)[C@H]1Oc1ccc(C#N)c(Cl)c1` (some centres unmarked) [Example 50, N-((1r,3r)-3-(3-chloro-4-cyanophenoxy)-2,2,4,4-tetramethylcyclobutyl)-4-(1-((1-(3-(2,6-dioxopiperidin-3-yl)-4-oxo-3,4-dihydrobenzo[d][1,2,3]triazin-6-yl)piperidin-4-yl)methyl)piperidin-4-yl)benzamide] the CC50 (VCaP cells [2]; [4]) was 0.223 µM and the remaining activity at 1 µM (Androgen receptor (AR)) was 6.8%.

For `CC1(C)C(NC(=O)c2cnc(N3CCN(CC4CCN(c5ccc6nnn(C7CCC(=O)NC7=O)c(=O)c6c5)CC4)CC3)cn2)C(C)(C)C1Oc1ccc(C#N)c(Cl)c1` (centres unmarked) [Example 79, N-((1r,3r)-3-(3-chloro-4-cyanophenoxy)-2,2,4,4-tetramethylcyclobutyl)-5-(4-((1-(3-(2,6-dioxopiperidin-3-yl)-4-oxo-3,4-dihydrobenzo[d][1,2,3]triazin-6-yl)piperidin-4-yl)methyl)piperazin-1-yl)pyrazine-2-carboxamide], the CC50 (VCaP cells [2]; [3]) was 0.2 µM and the “Degradation (1 μM treated in LNCaP, % AR remaining)” value (Androgen receptor (AR)) was 45%.

For `CC1(C)[C@H](NC(=O)c2ccc(N3CCN(CC4(F)CCN(c5ccc6nnn(C7CCC(=O)NC7=O)c(=O)c6c5)CC4)CC3)cc2)C(C)(C)[C@H]1Oc1ccc(C#N)c(Cl)c1` (some centres unmarked) [Example 61, N-((1r,3r)-3-(3-chloro-4-cyanophenoxy)-2,2,4,4-tetramethylcyclobutyl)-4-(4-((1-(3-(2,6-dioxopiperidin-3-yl)-4-oxo-3,4-dihydrobenzo[d][1,2,3]triazin-6-yl)-4-fluoropiperidin-4-yl)methyl)piperazin-1-yl)benzamide], the CC50 (VCaP cells [2]; [4]) was 0.29 µM and the remaining activity at 1 µM (Androgen receptor (AR)) was 25%.

With `CC1(C)[C@H](NC(=O)c2ccc(C3CCN(CC4CCN(C(=O)C5CCN(c6ccc7nnn(C8CCC(=O)NC8=O)c(=O)c7c6)CC5)CC4)CC3)cc2)C(C)(C)[C@H]1Oc1ccc(C#N)c(Cl)c1` (some centres unmarked) [Example 52, N-((1r,3r)-3-(3-chloro-4-cyanophenoxy)-2,2,4,4-tetramethylcyclobutyl)-4-(1-((1-(1-(3-(2,6-dioxopiperidin-3-yl)-4-oxo-3,4-dihydrobenzo[d][1,2,3]triazin-6-yl)piperidine-4-carbonyl)piperidin-4-yl)methyl)piperidin-4-yl)benzamide] the CC50 (VCaP cells [2]; [3]) was 0.0594 µM and the “Degradation (1 μM treated in LNCaP, % AR remaining)” value (Androgen receptor (AR)) was 32.2%.

With `CC1(C)C(NC(=O)c2ccc(N3CCN(CCCOC4CCN(C(=O)C5CCN(c6ccc7nnn(C8CCC(=O)NC8=O)c(=O)c7c6)CC5)CC4)CC3)cc2)C(C)(C)C1Oc1ccc(C#N)c(Cl)c1` (centres unmarked) [Example 35, N-((1r,3r)-3-(3-chloro-4-cyanophenoxy)-2,2,4,4-tetramethylcyclobutyl)-4-(4-(3-((1-(1-(3-(2,6-dioxopiperidin-3-yl)-4-oxo-3,4-dihydrobenzo[d][1,2,3]triazin-6-yl)piperidine-4-carbonyl)piperidin-4-yl)oxy)propyl)piperazin-1-yl)benzamide] the CC50 (VCaP cells [2]; [3]) was 0.0525 µM and the “Degradation (1 μM treated in LNCaP, % AR remaining)” value (Androgen receptor (AR)) was 6.4%.
